The subject of assay [1] is 3T3 mouse fibroblast. Description: In vitro scratch assay. In kind it is cell-based. To be noted: 3000 μM in culture medium, followed up to 12 hrs post scratching, linear regression. As to the method: The compounds of Formula (1) and (1a) were also tested by means of an in vitro model of wound healing. An in vitro scratch assay was performed as was described in Nature Protocols by Liang et al., 2007. In short, 3T3 mouse fibroblast were seeded onto a fibronectin coated 6-well plate and the confluent monolayers were scratched with a 200 μl pipette tip to obtain a linear gap in the monolayer. The closure of this monolayer was then followed up to 12 hrs post scratching. In order to evaluate the effect of the compound (isosorbide, isoidide and isomannide) either 30 μM or 3000 μM of the test compound were added to the culture medium. The increased dose was applied as the model cannot be entirely related to the in vivo situation as the closure time of this model is considerably faster as the in vivo wound (<18 hrs vs. weeks, resp.). The basic medium comprised DMEM, FCS 5%, HEPES 20 mM, L-glutamine 4 mM and 1% pen/strep. Hereto either nothing or the aforementioned concentrations of test compounds were added.

The subject of assay [2] is full-thickness skin wounds. Description: Mouse full-thickness skin wound model, scar analysis by histology. The format is in vivo. To be noted: for reduction in scar index: full thickness excisional wounds in mice, same application formulation, versus control group. As to the method: The mouse model used here can be considered one of the simplest and standard murine models for investigating scar formation and wound healing.
Mice were weighed and then anaesthetized with 5% isoflurane in air for induction and then administered 2.5-3% of isoflurane in air for the remainder of the procedure. The animals were administered Tramal (Tramadol) intraperitoneally for analgesia at a 0.1 mg/kg dose. Before surgery the back of the mice was shaved and disinfected with isobetadine soap, rinsed with water and then swabbed with iodium alcohol.
The back of the mice was shaved and four full-thickness skin wounds were performed by cutting the folded skin on the back of the mice with a 7.5 mm×3 mm elliptical biopsy punch (Elliptical Excisional Instrument, Acuderm Inc.). The skin on the back was raised and folded at the level of the vertebral column by using the thumb and the index finger. The folded skin was then placed on a wood tongue depressor with the animal laying on one side and two wounds were performed through the folded skin by using an elliptical biopsy punch (Elliptical Excisional Instrument, Acuderm Inc.), resulting in four wounds on the back skin: two on the right of the vertebral column and two on the left (FIG. 9). The epidermis, the dermis and the fat tissue in the wound was carefully removed without touching other tissues. The wounds were then immediately treated with topical application of either the hydrogel or the ointment (glycerol+HEPES buffer) formulation containing the active substance (T1 and T2) or vehicle (Tv) and one wound was (Ts) left untreated (FIG. 9). The position of the wounds was randomised according to a list. The wound site was then covered with OP-Film (Somed International, the Netherlands) (FIG. 9). The borders were then fixed with cyanoacrylate glue (Loctite).
This model is identical to the excisional model above except that the wounds were closed with three sutures.
The treatment was repeated at the day 1, 2, 3 and 4 post-surgery for a total of 5 treatments in the first 5 days of healing. At each time point the mice were briefly anaesthetized with isoflurane and a new dose of ointment was injected through the film onto the wound, after which the animal was left to recover. At day 5 all films were removed.
After 14 days the mice were sacrificed under isoflurane anaesthesia by cervical dislocation to harvest the regenerated tissue. At sacrifice the mice were weighed and a gross necropsy was performed during which the following tissues are harvested:
Skin samples were also taken. The back of the mouse was carefully shaved paying careful attention to not touch the wound area. […]
The extent of scarring was measured in accordance with the procedure set out by Khorasani et al (2011). […]

Assay [3] deals with infected and other superficial wounds. To be noted: 120 patients, wounds treated with sugar; cited from earlier work.
Assay [4] deals with S. aureus. The following applies: cited from earlier work.

`O[C@H]1CO[C@H]2[C@@H]1OC[C@@H]2O` [Isoidide, 1,4:3,6-Dianhydro-D-iditol]: in assay [1], the “effect on closure speed (reduction)” value came out at 27%. Moreover, in assay [2], the “reduction in scar index” value worked out at 44%.

In the case of `O[C@@H]1CO[C@H]2[C@@H]1OC[C@H]2O` [Isomannide, 1,4:3,6-dianhydro-D-mannitol], the “effect on closure speed (reduction)” value in assay [1] was determined as 23%. Also, the “reduction in scar index” value in assay [2] came to 38%.

Take `O[C@@H]1CO[C@H]2[C@@H]1OC[C@@H]2O` [Isosorbide]: in assay [1], the “effect on closure speed (reduction)” value was 10%. In assay [2] (1-way ANOVA with Dunnet's comparison, p<0.05), the “Scar index compared to Vehicle-treated / control group (statistics)” value was “significantly different from Control and Vehicle”. The Collagen organisation trend result in assay [2] (mouse wounds, upon administration) is listed as “increased values”.

Consider `OC[C@H]1O[C@@](CO)(O[C@H]2O[C@H](CO)[C@@H](O)[C@H](O)[C@H]2O)[C@@H](O)[C@@H]1O` [sugar, sucrose], for which, in assay [3], the curing rate is 99.2%. Further, in assay [4], the “sugar solution concentration affecting complete in vitro growth of S. aureus” value is reported as 183 g/100 g water.

(Values after patent publication US20160199343A1, “COMPOUNDS AND FORMULATIONS FOR THE TREATMENT OF WOUNDS” (NITTO DENKO CORPORATION, priority 2013, published 2016).)
